Test results taken from patent US20070166547A1, “Use of a layer consisting of hydrophobic linear, or two-dimensional polycyclic aromatics as a barrier layer or an encapsulation and electric components constructed with a layer of this type and comprising organic polymers” (priority 2003, published 2007).

What was measured:
thymus = assay: Morphine abstinence model: thymus condition; type: in vivo, rats; details: morphinized rats then compound
Experimental: The effect of the compounds according to the invention on the condition of the thymus of the rats was also investigated: a control group, an experimental group of morphinized animals and an experimental group of animals were first morphinized and then injected with the compounds according to the invention. The experiment was carried out similarly to that described above.

[1] = system: adenosine-sensitive receptors of thrombocytes; assay: ADP-induced aggregation of thrombocytes in vitro (Born method); type: cell-based, rabbit; details: 3 min incubation, ADP 10^−5 M
Experimental: The compounds according to the invention were studied for the effect of aggregation of thrombocytes induced by a preliminary introduction of a solution of an aggregation inductor with a competing introduction of the compounds according to the invention.
The aggregation of thrombocytes was studied by the Born method based on determination of the changes in the optical density of plasma enriched with thrombocytes after its incubation with an aggregation inductor.
Adenozinediphosphoric acid (ADP) was selected as an aggregation inductor, which in fact is an aggregation generator. Use was made of a sample (registration number 885) of the Sigma Diagnostics Company (USA) in final concentration of 10^−5 M.
The experiments were carried out on male rabbits of the “Chinchilla” breed having a mass of 2.7±0.3 kg. 18-24 hours prior to the experiment they were deprived of feed while preserving free access to water.
To obtain plasma enriched with thrombocytes, blood was taken from a cut of a marginal vein of the rabbit ear, the sample was stabilized with 3.8% of sodium citrate solution in a ratio of 9:1 and centrifuged at 200 g (1000 rev/min) for 10 minutes. The top supernatant layer enriched with thrombocytes was transferred by an automatic dropper into a silicone test tube and kept at 37° C. The plasma enriched with thrombocytes contained, on the average, […]. If this content exceeded the specified 3×10^8 blood platelets in 1 liter, this sample was diluted to the necessary concentration with plasma deprived of thrombocytes, which was obtained by centrifuging blood at 650 g during 10 minutes.
The measurements of the optical density of the samples were made on two-channel aggregometer of the “Chronolog” Company (USA). A flask containing 490 mkl of plasma rich with thrombocytes was placed in a device, into which a magnetic agitator covered with Teflon was lowered. The index of maximum amplitude of aggregation (MA) in percent of a fall of the plasma optical density under effect of the aggregation inductor was recorded. The control index MA of plasma was compared with the MA of plasma incubated for 3 minutes with different concentrations of the compounds: from 10^−3 to 10^−7 in vitro experiments or with plasma obtained 15, 30, 60 and 120 minutes after intravenous administration of different doses of the compounds in vivo experiments.
The process of aggregation of thrombocytes was recorded with the help of a computer; on the monitor screen the there were depicted curves reflecting changes of the optical density of the plasma enriched which was taken as a standard 100% compared to the optical density of the non-thrombocyte plasma taken for 0% content of thrombocytes.
Under in vitro conditions a flask was filled with blood plasma enriched with thrombocytes, to which an aggregation inductor ADP was added at a concentration of 10^−5 M, incubated for 3 minutes, and then the compounds according to the invention were introduced directly into the flask. Their action by aggregation of thrombocytes was studied after 3-minute incubation in a wide range of concentrations from 10^−3 to 10^−7 M to minimum concentration of 10^−7 M not inducing no effect of suppressing the aggregation.

plasma hemostasis = assay: Partial activated thromboplastin time (PATT) after intravenous administration; type: in vivo, rabbit; details: for effect on the PATT (overall): doses 15.0, 30.0, 60.0 mg/kg
Experimental: The investigations were performed on 72 rabbits of the “Chinchilla” breed with a mass of 2.5±0.3 kg, who were administered which solutions of compounds 2, 15, 21, 37 in doses of 15, 30 and 60 mg/kg intravenously. The experiments included the thrombin-test (series No. 7300) and the coagulability-test (series No. 5000) purchased from the scientific-and-production association (SPA) “Renam”, thromboplastin (series No. 240600) and calcium chloride purchased from the SPA “MedioLab”
The static parameters of the blood and plasma coagulation (partial activated thromboplastin time, thrombin time, maximum coagulation activity (test for auto coagulation) were determined using the Behnk Electronic coagulometer (Germany). The operating principle of this instrument is based on the fact that the formed blood clot breaks the contacts of the pulse counter in the flask-pin circuit, said pin permanently oscillating in a vertical plane. The moment of formation of the clot is registered by stopping the stop watch hand.
The measurements were effected at a constant temperature of 37° C. maintained by a temperature control unit.
Compounds 2, 15, 21, 37 according to the invention at a concentration of 15, 30 and 60 mg/kg were introduced to the above experimental animals intravenously, and their blood samples were taken off 15, 30, 60 and 120 minutes after the administration.
The blood plasma samples deprived of thrombocytes obtained as described above in an amount of 0.1 ml were put in a coagulometer flask and heated for 1 minute at 37° C., then 0.1 ml of 0.277% solution of calcium chloride was added and the blood clotting time was registered. The coagulation time T in seconds of the control plasma and plasma obtained after intravenous administration after 15, 30, 60 and 120 minutes were compared.

Row | Compound | Nitrites, thymus Supernatant, Administration of morphine and compound (thymus) | Thymus mass, Administration of morphine and compound (thymus) [mg] | MA - fall of optical density of plasma, % to the standard ([1]; 10^−3 M) [%] | MA - fall of optical density of plasma, % to the standard ([1]; 10^−4 M) [%] | MA - fall of optical density of plasma, % to the standard ([1]; 10^−5 M) [%] | MA - drop of optical density, % compared to control ([1]; 10^−6 M) [%] | MA - drop of optical density, % compared to control ([1]; 10^−7 M) [%] | T, s after 15 minutes (PATT) (plasma hemostasis; dose 15.0 mg/kg intravenously) [s] | T, s after 30 minutes (PATT) (plasma hemostasis; dose 15.0 mg/kg intravenously) [s] | T, s after 60 minutes (PATT) (plasma hemostasis; dose 15.0 mg/kg intravenously) [s] | T, s after 120 minutes (PATT) (plasma hemostasis; dose 15.0 mg/kg intravenously) [s] | T, s after 15 minutes (PATT) (plasma hemostasis; dose 30.0 mg/kg intravenously) [s] | T, s after 30 minutes (PATT) (plasma hemostasis; dose 30.0 mg/kg intravenously) [s] | T, s after 60 minutes (PATT) (plasma hemostasis; dose 30.0 mg/kg intravenously) [s] | T, s after 120 minutes (PATT) (plasma hemostasis; dose 30.0 mg/kg intravenously) [s] | T, s after 15 minutes (PATT) (plasma hemostasis; dose 60.0 mg/kg intravenously) [s] | T, s after 30 minutes (PATT) (plasma hemostasis; dose 60.0 mg/kg intravenously) [s] | T, s after 60 minutes (PATT) (plasma hemostasis; dose 60.0 mg/kg intravenously) [s] | T, s after 120 minutes (PATT) (plasma hemostasis; dose 60.0 mg/kg intravenously) [s] | effect on the PATT (overall) (plasma hemostasis)
1 | Nc1cccc2c(=O)[nH][nH]c(=O)c12.[Na] [Compound 15, sodium salt of 5-amino-benzo[d]-3H-pyridazine-1,4-dione] | 0.383 ± 0.02 nmol/mg of protein | 214 ± 12 | 44.8 ± 2.8 | 46.3 ± 1.7 | 39.8 ± 3.1 | 47.3 ± 1.8 | 49.3 ± 1.4 | 37.0 ± 0.1 | 37.0 ± 0.2 | 36.9 ± 0.1 | 37.0 ± 0.3 | 32.9 ± 0.8 | 32.1 ± 0.1 | 32.0 ± 0.2 | 32.0 ± 0.1 | 32.2 ± 0.1 | 32.2 ± 0.1 | 32.1 ± 0.2 | 32.2 ± 0.1 | do not affect the PATT
2 | O=c1[nH][nH]c(=O)c2nccnc12.[Li] [Compound 25, lithium salt of pyrazine[2,3-d]-6H-pyridazine-5,8-dione] | 0.396 ± 0.02 nmol/mg of protein | 218 ± 17 | 48.2 ± 2.9 | 48.6 ± 2.0 | 43.4 ± 3.2 | 50.3 ± 2.1 | 50.1 ± 3.0 | – | – | – | – | – | – | – | – | – | – | – | – | –
3 | Nc1ncc2c(=O)[nH][nH]c(=O)c2n1 [Compound 36, 2-amino-pyrimido[4,5-d]-6H-pyridazine-5,8-dione] | – | – | 45.8 ± 2.3 | 46.9 ± 2.4 | 40.1 ± 2.0 | 49.3 ± 2.6 | 49.7 ± 1.8 | – | – | – | – | – | – | – | – | – | – | – | – | –
4 | O=c1[nH][nH]c(=O)c2c(Br)ncnc12.[K] [Compound 37, potassium salt of 4-bromine-pyrimido[4,5-D]-6H-pyridazine-5,8-dione] | 0.387 ± 0.01 nmol/mg of protein | 228 ± 15 | 46.9 ± 2.7 | 47.1 ± 2.0 | 40.6 ± 1.7 | 48.1 ± 2.9 | 50.1 ± 1.0 | 37.0 ± 0.2 | 37.1 ± 0.1 | 37.0 ± 0.2 | 36.9 ± 0.1 | 33.1 ± 0.1 | 33.3 ± 0.1 | 33.3 ± 0.2 | 33.0 ± 0.4 | 32.5 ± 0.1 | 32.3 ± 0.2 | 32.4 ± 0.1 | 32.6 ± 0.3 | do not affect the PATT
5 | Nc1cnc2c(=O)n([C@@H]3O[C@H](CO)[C@@H](O)[C@H]3O)[nH]c(=O)c2n1.[Na] [Compound 21, sodium salt of 3-amino-7-(β-D-ribofuranosile)pyrazine[2,3-d]-6H-pyridazine-5,8-dione] | – | – | 47.1 ± 3.0 | 49.2 ± 2.1 | 41.8 ± 2.4 | 49.6 ± 1.7 | 49.7 ± 2.1 | 37.1 ± 0.1 | 37.2 ± 0.1 | 36.9 ± 0.1 | 37.0 ± 0.2 | 32.8 ± 0.4 | 32.0 ± 0.1 | 32.2 ± 0.1 | 32.1 ± 0.1 | 32.0 ± 0.4 | 32.1 ± 0.2 | 32.0 ± 0.1 | 32.3 ± 0.2 | do not affect the PATT
6 | Nc1ccnc2c(=O)n([C@@H]3O[C@H](CO)[C@@H](O)[C@H]3O)[nH]c(=O)c12 [Compound 2, 4-amino-7-(β-D-ribofuranosile)pyrido[2,3-d]-6H-pyridazine-5,8-dione] | – | – | 51.4 ± 2.7 | 50.4 ± 1.7 | 48.2 ± 1.0 | 50.1 ± 2.0 | 50.8 ± 2.2 | 37.0 ± 0.1 | 37.0 ± 0.2 | 36.9 ± 0.1 | 37.0 ± 0.3 | 32.7 ± 0.5 | 32.0 ± 0.1 | 32.2 ± 0.1 | 32.1 ± 0.2 | 32.3 ± 0.2 | 32.4 ± 0.1 | 32.3 ± 0.1 | 32.4 ± 0.1 | do not affect the PATT
